Data published in patent US20260356823A1, “SODIUM CHANNEL REGULATOR AND USE THEREOF” (SHANGHAI HUILUN PHARMACEUTICAL CO., LTD., priority 2022, published 2026).

These compounds were tested against T1, human Nav1.8 (Homo sapiens, UniProt Q9Y5Y9) (assay: In vitro inhibition of Nav1.8, manual patch clamp on HEK293 cells stably expressing human Nav1.8). Details: HEK293, 100 nM, human Nav1.8, manual patch clamp, read-out: Inhibitory activity (inhibition/% at 100 nM concentration).
T1 construct: expressed in transfected cells
Assay type: cell-based
Protocol: Bioactivity Test 1: In Vitro Inhibition of Nav1.8 by the Compound
By using a manual patch clamp on HEK293 cells stably expressing human Nav1.8, currents on Nav1.8 before and after administration of the compound were compared after the currents on Nav1.8 were stable, to obtain the effect of the compound on the Nav1.8 channel.
The to-be-tested compound was dissolved in DMSO to prepare a 9 mM stock solution, which was taken and dissolved in extracellular fluid at a desired concentration on the day of testing. The extracellular fluid included the following ingredients (mM): NaCl, 137; KCl, 4; CaCl2, 1.8; MgCl2, 1; HEPES, 10; glucose, 10; and pH 7.4 (NaOH titration). All reagents were purchased from Sigma (St. Louis, MO).
The cells were clamped at −80 mV and depolarized with a sustained 10 ms square wave to 10 mV to obtain a current on Nav1.8. This process was repeated every 5 seconds. A maximum current caused by the square wave was detected. After the current is stable, the to-be-tested compound (dissolved in the extracellular fluid at the desired concentration) was perfused. After the current is stable, the strength of blocking Nav1.8 by the compound was calculated based on the currents before and after perfusion of the compound. pCLAMP 10 (Molecular Devices, Union City, CA) was used. That the current is stable means that the current changes over time within a limited range.

T1 sequence (Q9Y5Y9 whole entry): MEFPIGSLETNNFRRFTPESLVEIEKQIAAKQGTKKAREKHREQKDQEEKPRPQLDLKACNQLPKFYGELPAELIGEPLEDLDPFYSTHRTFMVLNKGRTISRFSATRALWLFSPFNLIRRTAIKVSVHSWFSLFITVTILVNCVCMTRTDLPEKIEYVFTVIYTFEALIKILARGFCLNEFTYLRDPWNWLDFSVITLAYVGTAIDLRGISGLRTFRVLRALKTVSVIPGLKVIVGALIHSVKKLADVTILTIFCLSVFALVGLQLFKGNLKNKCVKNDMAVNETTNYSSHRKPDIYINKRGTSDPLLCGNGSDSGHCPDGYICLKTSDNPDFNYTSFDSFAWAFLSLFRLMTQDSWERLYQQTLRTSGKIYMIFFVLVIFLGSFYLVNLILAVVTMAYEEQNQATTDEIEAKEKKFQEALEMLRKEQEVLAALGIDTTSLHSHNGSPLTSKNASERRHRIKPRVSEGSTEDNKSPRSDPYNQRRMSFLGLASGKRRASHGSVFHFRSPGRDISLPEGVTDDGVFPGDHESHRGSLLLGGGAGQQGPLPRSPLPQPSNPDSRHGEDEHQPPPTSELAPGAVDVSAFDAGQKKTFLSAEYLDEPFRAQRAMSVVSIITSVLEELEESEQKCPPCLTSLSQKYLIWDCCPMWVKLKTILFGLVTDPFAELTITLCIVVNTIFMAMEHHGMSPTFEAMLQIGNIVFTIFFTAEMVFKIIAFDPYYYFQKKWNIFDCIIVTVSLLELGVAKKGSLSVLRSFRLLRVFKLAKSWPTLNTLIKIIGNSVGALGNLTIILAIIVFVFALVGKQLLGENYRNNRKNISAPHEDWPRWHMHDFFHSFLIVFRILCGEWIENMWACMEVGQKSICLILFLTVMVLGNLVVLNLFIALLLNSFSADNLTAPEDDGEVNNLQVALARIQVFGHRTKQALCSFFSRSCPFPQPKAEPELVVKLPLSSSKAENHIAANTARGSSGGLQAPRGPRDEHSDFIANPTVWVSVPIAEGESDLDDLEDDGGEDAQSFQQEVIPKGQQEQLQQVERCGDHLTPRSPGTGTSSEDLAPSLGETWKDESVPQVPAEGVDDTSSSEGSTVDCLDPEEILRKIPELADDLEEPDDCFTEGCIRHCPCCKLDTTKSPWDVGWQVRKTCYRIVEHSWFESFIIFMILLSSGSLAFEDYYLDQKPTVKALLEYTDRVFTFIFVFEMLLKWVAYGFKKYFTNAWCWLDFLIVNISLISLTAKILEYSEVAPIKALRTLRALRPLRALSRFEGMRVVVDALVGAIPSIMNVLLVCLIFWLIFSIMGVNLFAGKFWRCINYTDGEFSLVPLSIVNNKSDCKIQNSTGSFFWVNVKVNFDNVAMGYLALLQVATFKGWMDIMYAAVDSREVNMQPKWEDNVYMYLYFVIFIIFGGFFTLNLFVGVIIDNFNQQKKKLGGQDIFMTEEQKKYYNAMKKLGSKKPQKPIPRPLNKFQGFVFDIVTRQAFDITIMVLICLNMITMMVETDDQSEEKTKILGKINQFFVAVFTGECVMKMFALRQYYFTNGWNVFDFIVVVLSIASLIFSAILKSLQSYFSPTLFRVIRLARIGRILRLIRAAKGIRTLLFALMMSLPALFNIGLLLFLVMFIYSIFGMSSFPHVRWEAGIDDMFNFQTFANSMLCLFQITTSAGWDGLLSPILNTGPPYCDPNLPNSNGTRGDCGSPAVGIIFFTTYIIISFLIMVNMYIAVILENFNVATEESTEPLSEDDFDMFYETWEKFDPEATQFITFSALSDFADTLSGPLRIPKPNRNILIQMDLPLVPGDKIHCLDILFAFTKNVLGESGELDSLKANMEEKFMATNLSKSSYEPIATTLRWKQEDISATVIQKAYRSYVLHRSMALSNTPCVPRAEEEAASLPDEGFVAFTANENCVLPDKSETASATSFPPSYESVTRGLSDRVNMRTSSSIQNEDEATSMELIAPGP

Inhibition at 0.1 µM, ≥ 50%:
COc1c(C2C(C(=O)Nc3ccc(C(N)=O)c(C(N)=O)c3)OC3(C(F)(F)F)CCC23C)ccc(F)c1F [Example 86, rel-4-((1R,3R,4S,5R)-4-(3,4-difluoro-2-methoxyphenyl)-5-methyl-1-(trifluoromethyl)-2-oxabicyclo[3.2.0]heptane-3-formylamino)phthalamide]
CNS(=O)(=O)c1cc(NC(=O)[C@@H]2O[C@]3(C(F)(F)F)CC[C@]3(C)[C@H]2c2ccc(F)c(F)c2OC)ccn1 (relative stereo) [Example 88, rel-(1R,3R,4S,5R)-4-(3,4-difluoro-2-methoxyphenyl)-5-methyl-N-(2-(N-methylsulfamoyl)pyridin-4-yl)-1-(trifluoromethyl)-2-oxabicyclo[3.2.0]heptane-3-carboxamide]
COc1c([C@H]2[C@H](C(=O)Nc3cc[n+](C)c(C(N)=O)c3)O[C@@](C)(C(F)(F)F)[C@H]2C)ccc(F)c1F (relative stereo) [Example 16, rel-2-carbamoyl-4-((2R,3S,4S,5R)-3-(3,4-difluoro-2-methoxyphenyl)-4,5-dimethyl-5-(trifluoromethyl)tetrahydrofuran-2-carboxamido)-1-methylpyridin-1-onium iodide]
COc1c([C@H]2[C@H](C(=O)Nc3ccnc(S(C)(=O)=O)c3)O[C@]3(C(F)(F)F)CC[C@]23C)ccc(F)c1F (relative stereo) [Example 101, rel-(1R,3R,4S,5R)-4-(3,4-difluoro-2-methoxyphenyl)-5-methyl-N-(2-methylsulfonyl)pyridin-4-yl)-1-trifluoromethyl-2-oxabicyclo[3.2.0]heptane-3-carboxamide]
COc1c([C@H]2[C@H](C(=O)Nc3ccc4c(=O)[nH][nH]c(=O)c4c3)O[C@@](C)(C(F)(F)F)[C@H]2C)ccc(F)c1F (relative stereo) [Example 12]
COc1c([C@H]2[C@H](C(=O)Nc3ccc(C(O)CO)nc3)O[C@]3(C(F)(F)F)CC[C@]23C)ccc(F)c1F (relative stereo) [Example 98, rel-(1R,3R,4S,5R)-4-(3,4-difluoro-2-methoxyphenyl)-N-(6-(1,2-dihydroxyethyl)pyridin-3-yl)-5-methyl-1-trifluoromethyl-2-oxabicyclo[3.2.0]heptane-3-carboxamide]
COc1c(C2[C@H](C(=O)Nc3ccnc(S(=O)(=O)NCC(F)(F)F)c3)O[C@@](C)(C(F)(F)F)[C@H]2C)ccc(F)c1F (relative stereo) [Example 84, rel-(2R,3S,4S,5R)-3-(3,4-difluoro-2-methoxyphenyl)-4,5-dimethyl-N-(2-(N-(2,2,2-trifluoroethyl)sulfamoyl)pyridin-4-yl)-5-trifluoromethyl tetrahydrofuran-2-carboxamide]
COc1c([C@H]2[C@H](C(=O)Nc3ccc(C(N)=O)nc3)O[C@]3(C(F)(F)F)CC[C@]23C)ccc(F)c1F [Example 97, 5-((1S,3R,4S,5S)-4-(3,4-difluoro-2-methoxyphenyl)-5-methyl-1-(trifluoromethyl)-2-oxabicyclo[3.2.0]heptane-3-formylamino)pyridinecarboxamide]
CCNS(=O)(=O)c1cc(NC(=O)[C@@H]2O[C@@](C)(C(F)(F)F)[C@@H](C)[C@H]2c2ccc(F)c(F)c2OC)ccn1 (relative stereo) [Example 83, rel-(2R,3S,4S,5R)-3-(3,4-difluoro-2-methoxyphenyl)-N-(2-(N-ethylsulfamoyl)pyridin-4-yl)-4,5-dimethyl-5-(trifluoromethyl)tetrahydrofuran-2-carboxamide]
COc1c([C@H]2[C@H](C(=O)Nc3ccc4c(c3)CNC4=O)O[C@@](C)(C(F)(F)F)[C@H]2C)ccc(F)c1F (relative stereo) [Example 8, rel-(2R,3S,4S,5R)-3-(3,4-difluoro-2-methoxyphenyl)-4,5-dimethyl-N-(1-oxo-2,3-dihydro-1H-isoindol-5-yl)-5-(trifluoromethyl)tetrahydrofuran-2-carboxamide]
